Where two headings read alike, the source gives them in different places. *1 amine or outer side, *2 acyl side, *3 side chain or, on linkers, in order; H or OH if unused. Where a SMILES comes first, the peptide text is derived from it. Side-chain parts run from the residue outwards. [ ]: non-standard residue; d: D form. The star is where a group is joined. γGlu = O=C(O)[C@H](CCC(=O)[*:2])N[*:1]; Palmitoyl = CCCCCCCCCCCCCCCC(=O)*; Aib = CC(C)(N)C(=O)O
Tests used:
[1] = target: human GCGR (Homo sapiens, UniProt P47871); experiment: Peptide-receptor mediated cAMP accumulation (LANCE Ultra cAMP) in CHO-K1 cells transfected with human GCGR; format: cell-based
Chain of human GCGR (P47871 26-477): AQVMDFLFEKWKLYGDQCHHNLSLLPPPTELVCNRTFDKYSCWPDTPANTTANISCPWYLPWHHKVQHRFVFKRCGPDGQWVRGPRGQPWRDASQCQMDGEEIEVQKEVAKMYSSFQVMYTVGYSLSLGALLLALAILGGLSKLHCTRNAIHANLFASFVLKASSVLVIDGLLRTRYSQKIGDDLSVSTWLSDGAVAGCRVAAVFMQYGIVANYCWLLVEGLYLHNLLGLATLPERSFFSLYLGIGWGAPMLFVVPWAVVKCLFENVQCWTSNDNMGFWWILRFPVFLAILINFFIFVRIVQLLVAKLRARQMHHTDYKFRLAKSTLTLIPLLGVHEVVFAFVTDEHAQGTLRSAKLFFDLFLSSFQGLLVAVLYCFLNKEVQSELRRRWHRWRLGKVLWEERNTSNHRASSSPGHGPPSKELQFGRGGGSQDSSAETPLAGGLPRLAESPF

[2] = target: human GLP-1R (Homo sapiens, UniProt P43220); experiment: Peptide-receptor mediated cAMP accumulation (LANCE Ultra cAMP) in CHO-K1 cells transfected with human GLP-1R; format: cell-based
Chain of human GLP-1R (P43220 24-463): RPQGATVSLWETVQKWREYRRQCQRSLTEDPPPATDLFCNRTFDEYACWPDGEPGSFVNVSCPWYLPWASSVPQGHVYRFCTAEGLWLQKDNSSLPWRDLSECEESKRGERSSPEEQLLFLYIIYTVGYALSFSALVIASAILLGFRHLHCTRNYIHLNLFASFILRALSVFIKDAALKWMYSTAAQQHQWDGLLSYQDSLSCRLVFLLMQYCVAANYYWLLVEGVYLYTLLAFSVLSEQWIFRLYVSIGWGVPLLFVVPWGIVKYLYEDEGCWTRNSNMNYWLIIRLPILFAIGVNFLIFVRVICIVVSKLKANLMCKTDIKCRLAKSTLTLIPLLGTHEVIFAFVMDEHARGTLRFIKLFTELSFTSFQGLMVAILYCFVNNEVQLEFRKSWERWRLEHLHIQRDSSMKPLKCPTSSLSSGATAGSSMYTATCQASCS

[3] = Solubility in water or saline at room temperature, visual inspection; format: physicochemical; details: Solubility in water mg/ml
Source text: Samples were visually inspected for clarity of the sample, any appearance of turbidity or haziness.

[4] = in vivo; details: male, rat
[5] = Clearance following intravenous infusion, acylated peptides (1-hour infusion, 0.033 mg/kg); details: rat, in vivo
[6] = read-out: GluR pEC50 (converted)
[7] = Table 7, GLP-1R, read-out: GLP-1R pEC50 (converted)

Compound | EC50 ([1]; Table 2B) | hGCGR pEC50 (cAMP mean (n = 3): 11 point curve starting at 1 nM) ([1]; Table 3) | EC50 ([2]; hGLP1 pEC50 (cAMP mean (n = 3): 11 point curve starting at 1 nM, Table 3)) | EC50 ([2]; hGLP1 pEC50 (cAMP) mean (n = 3): 11 point curve starting at 1 nM, Table 2B) | solubility [3] | clearance [4] | EC50 [1, 6] | EC50 [2, 7] | clearance [5] | half-life [5]
CC(C)C[C@H](NC(=O)[C@H](Cc1ccc(O)cc1)NC(=O)[C@H](CCCCN)NC(=O)[C@H](CO)NC(=O)[C@H](Cc1ccc(O)cc1)NC(=O)[C@H](CC(=O)O)NC(=O)[C@H](CO)NC(=O)[C@@H](NC(=O)[C@H](Cc1ccccc1)NC(=O)[C@@H](NC(=O)CNC(=O)[C@H](Cc1c[nH]cn1)NC(=O)[C@H](CO)NC(=O)[C@@H](N)Cc1ccc(O)cc1)[C@@H](C)O)[C@@H](C)O)C(=O)N[C@@H](CC(=O)O)C(=O)NC(C)(C)C(=O)N[C@@H](C)C(=O)N[C@@H](CCCNC(=N)N)C(=O)N[C@@H](C)C(=O)N[C@@H](CCC(N)=O)C(=O)N[C@@H](CCC(=O)O)C(=O)N[C@@H](Cc1ccccc1)C(=O)N[C@H](C(=O)NC(C)(C)C(=O)N[C@@H](Cc1c[nH]c2ccccc12)C(=O)N[C@@H](CC(C)C)C(=O)N[C@@H](CCC(=O)O)C(=O)N[C@@H](CC(=O)O)C(=O)N[C@@H](CCC(=O)O)C(=O)N1CCC[C@H]1C(=O)N[C@@H](CO)C(=O)N[C@@H](CO)C(=O)NCC(=O)N[C@@H](C)C(=O)N1CCC[C@H]1C(=O)N1CCC[C@H]1C(=O)N1CCC[C@H]1C(=O)N[C@@H](CO)C(=O)O)C(C)C [Compound A103] (H-YSHGTFTSDYSKYLD[Aib]ARAQEFV[Aib]WLEDEPSSGAPPPS-OH; N-terminus assumed) | 0.00126 nM | 11.9 | > 1 nM | > 1 nM | > 200 mg/mL | 1.71 L/h/kg | – | – | – | –
CCCCCCCCCCCCCCCC(=O)N[C@@H](CCC(=O)NCCCC[C@H](NC(=O)[C@H](CC(=O)O)NC(=O)[C@H](CC(C)C)NC(=O)[C@H](Cc1ccc(O)cc1)NC(=O)[C@H](CCCCN)NC(=O)[C@H](CO)NC(=O)[C@H](Cc1ccc(O)cc1)NC(=O)[C@H](CC(=O)O)NC(=O)[C@H](CO)NC(=O)[C@@H](NC(=O)[C@H](Cc1ccccc1)NC(=O)[C@@H](NC(=O)CNC(=O)[C@H](Cc1c[nH]cn1)NC(=O)[C@H](CO)NC(=O)[C@@H](N)Cc1ccc(O)cc1)[C@@H](C)O)[C@@H](C)O)C(=O)N[C@@H](CCCCN)C(=O)N[C@@H](Cc1ccc(O)cc1)C(=O)N[C@@H](C)C(=O)N[C@@H](CCC(N)=O)C(=O)N[C@@H](CCC(=O)O)C(=O)N[C@@H](Cc1ccccc1)C(=O)N[C@H](C(=O)NC(C)(C)C(=O)N[C@@H](Cc1c[nH]c2ccccc12)C(=O)N[C@@H](CC(C)C)C(=O)N[C@@H](CCC(=O)O)C(=O)N[C@@H](CC(=O)O)C(=O)N[C@@H](CCC(=O)O)C(=O)N1CCC[C@H]1C(=O)N[C@@H](CO)C(=O)N[C@@H](CO)C(=O)NCC(=O)N[C@@H](C)C(=O)N1CCC[C@H]1C(=O)N1CCC[C@H]1C(=O)N1CCC[C@H]1C(=O)N[C@@H](CO)C(=O)O)C(C)C)C(=O)O [Compound B3] | – | – | – | – | – | – | 0.00398 nM | > 1000 nM | 1.13 L/h/kg | 1.79 h
CCCCCCCCCCCCCCCC(=O)N[C@@H](CCC(=O)NCCCC[C@H](NC(=O)[C@H](CO)NC(=O)[C@H](CO)NC(=O)[C@@H]1CCCN1C(=O)[C@H](CCC(=O)O)NC(=O)[C@H](CC(=O)O)NC(=O)[C@H](CCC(=O)O)NC(=O)[C@H](CC(C)C)NC(=O)[C@H](Cc1c[nH]c2ccccc12)NC(=O)C(C)(C)NC(=O)[C@@H](NC(=O)[C@H](Cc1ccccc1)NC(=O)[C@H](CCC(=O)O)NC(=O)[C@H](CCC(N)=O)NC(=O)[C@H](C)NC(=O)[C@H](CO)NC(=O)[C@H](CCCCN)NC(=O)C(C)(C)NC(=O)[C@H](CC(=O)O)NC(=O)[C@H](CC(C)C)NC(=O)[C@H](Cc1ccc(O)cc1)NC(=O)[C@H](CCCCN)NC(=O)[C@H](CO)NC(=O)[C@H](Cc1ccc(O)cc1)NC(=O)[C@H](CC(=O)O)NC(=O)[C@H](CO)NC(=O)[C@@H](NC(=O)[C@H](Cc1ccccc1)NC(=O)[C@@H](NC(=O)CNC(=O)[C@H](Cc1c[nH]cn1)NC(=O)[C@H](CO)NC(=O)[C@@H](N)Cc1ccc(O)cc1)[C@@H](C)O)[C@@H](C)O)C(C)C)C(=O)N[C@@H](C)C(=O)N1CCC[C@H]1C(=O)N1CCC[C@H]1C(=O)N1CCC[C@H]1C(=O)N[C@@H](CO)C(=O)O)C(=O)O [Compound B9] | – | – | – | – | – | – | 0.00794 nM | > 1000 nM | 0.0356 L/h/kg | 4.98 h
CC(C)C[C@H](NC(=O)[C@H](Cc1c[nH]c2ccccc12)NC(=O)[C@H](CCCCNC(=O)COCCOCCNC(=O)COCCOCCNC(=O)CC[C@H](NC(=O)CCCCCCCCCCCCCCCCC(=O)O)C(=O)O)NC(=O)[C@@H](NC(=O)[C@H](Cc1ccccc1)NC(=O)[C@H](CCC(=O)O)NC(=O)[C@H](CCC(N)=O)NC(=O)[C@H](C)NC(=O)[C@H](CO)NC(=O)[C@H](CCCCN)NC(=O)C(C)(C)NC(=O)[C@H](CC(=O)O)NC(=O)[C@H](CC(C)C)NC(=O)[C@H](Cc1ccc(O)cc1)NC(=O)[C@H](CCCCN)NC(=O)[C@H](CO)NC(=O)[C@H](Cc1ccc(O)cc1)NC(=O)[C@H](CC(=O)O)NC(=O)[C@H](CO)NC(=O)[C@@H](NC(=O)[C@H](Cc1ccccc1)NC(=O)[C@@H](NC(=O)CNC(=O)[C@H](Cc1c[nH]cn1)NC(=O)[C@H](CO)NC(=O)[C@@H](N)Cc1ccc(O)cc1)[C@@H](C)O)[C@@H](C)O)C(C)C)C(=O)N[C@@H](CCC(=O)O)C(=O)N[C@@H](CC(=O)O)C(=O)N[C@@H](CCC(=O)O)C(=O)N1CCC[C@H]1C(=O)N[C@@H](CO)C(=O)N[C@@H](CO)C(=O)NCC(=O)N[C@@H](C)C(=O)N1CCC[C@H]1C(=O)N1CCC[C@H]1C(=O)N1CCC[C@H]1C(=O)N[C@@H](CO)C(=O)O [Compound B14] | – | – | – | – | – | – | 0.501 nM | > 1000 nM | 0.159 L/h/kg | 13.9 h
CC(C)C[C@H](NC(=O)[C@H](Cc1ccc(O)cc1)NC(=O)[C@H](CCCCN)NC(=O)[C@H](CO)NC(=O)[C@H](Cc1ccc(O)cc1)NC(=O)[C@H](CC(=O)O)NC(=O)[C@H](CO)NC(=O)[C@@H](NC(=O)[C@H](Cc1ccccc1)NC(=O)[C@@H](NC(=O)CNC(=O)[C@H](Cc1c[nH]cn1)NC(=O)[C@H](CO)NC(=O)[C@@H](N)Cc1ccc(O)cc1)[C@@H](C)O)[C@@H](C)O)C(=O)N[C@@H](CC(=O)O)C(=O)N[C@@H](CCCCNC(=O)COCCOCCNC(=O)COCCOCCNC(=O)CC[C@H](NC(=O)CCCCCCCCCCCCCCCCC(=O)O)C(=O)O)C(=O)N[C@@H](CCCCN)C(=O)N[C@@H](CO)C(=O)N[C@@H](C)C(=O)N[C@@H](CCC(N)=O)C(=O)N[C@@H](CCC(=O)O)C(=O)N[C@@H](Cc1ccccc1)C(=O)N[C@H](C(=O)NC(C)(C)C(=O)N[C@@H](Cc1c[nH]c2ccccc12)C(=O)N[C@@H](CC(C)C)C(=O)N[C@@H](CCC(=O)O)C(=O)N[C@@H](CC(=O)O)C(=O)N[C@@H](CCC(=O)O)C(=O)N1CCC[C@H]1C(=O)N[C@@H](CO)C(=O)N[C@@H](CO)C(=O)NCC(=O)N[C@@H](C)C(=O)N1CCC[C@H]1C(=O)N1CCC[C@H]1C(=O)N1CCC[C@H]1C(=O)N[C@@H](CO)C(=O)O)C(C)C [Compound B15] | – | – | – | – | – | – | 0.126 nM | > 1000 nM | 0.0274 L/h/kg | 9.34 h
CCCCCCCCCCCCCCCC(=O)N[C@@H](CCC(=O)NCCCC[C@H](NC(=O)[C@H](CO)NC(=O)[C@H](CCCCN)NC(=O)[C@@H]1CCCN1C(=O)[C@H](CCC(=O)O)NC(=O)[C@H](CC(=O)O)NC(=O)[C@H](CCC(=O)O)NC(=O)[C@H](CC(C)C)NC(=O)[C@H](Cc1c[nH]c2ccccc12)NC(=O)[C@H](CCCCN)NC(=O)[C@@H](NC(=O)[C@H](Cc1ccccc1)NC(=O)[C@H](CCC(=O)O)NC(=O)[C@H](CCC(N)=O)NC(=O)[C@H](C)NC(=O)[C@H](CCCNC(=N)N)NC(=O)[C@H](C)NC(=O)[C@H](C)NC(=O)[C@H](CC(=O)O)NC(=O)[C@H](CC(C)C)NC(=O)[C@H](Cc1ccc(O)cc1)NC(=O)[C@H](CCCCN)NC(=O)[C@H](CO)NC(=O)[C@H](Cc1ccc(O)cc1)NC(=O)[C@H](CC(=O)O)NC(=O)[C@H](CO)NC(=O)[C@@H](NC(=O)[C@H](Cc1ccccc1)NC(=O)[C@@H](NC(=O)CNC(=O)[C@H](CCC(N)=O)NC(=O)[C@H](CO)NC(=O)[C@@H](N)Cc1ccc(O)cc1)[C@@H](C)O)[C@@H](C)O)C(C)C)C(=O)N[C@@H](CO)C(=O)N1CCC[C@H]1C(=O)N1CCC[C@H]1C(=O)N1CCC[C@H]1C(=O)N[C@@H](CO)C(N)=O)C(=O)O [Compound B33] (H-YSQGTFTSDYSKYLDAARAQEFVKWLEDEPKSK([γGlu-Palmitoyl])SPPPS-NH2) | – | – | – | – | – | – | 0.0251 nM | > 1000 nM | 0.418 L/h/kg | 0.429 h
CCCCCCCCCCCCCCCC(=O)N[C@@H](CCC(=O)NCCCC[C@H](NC(=O)[C@H](CO)NC(=O)[C@H](CO)NC(=O)[C@@H]1CCCN1C(=O)[C@H](CCC(=O)O)NC(=O)[C@H](CC(=O)O)NC(=O)[C@H](CCC(=O)O)NC(=O)[C@H](CC(C)C)NC(=O)[C@H](Cc1c[nH]c2ccccc12)NC(=O)[C@H](CCCCN)NC(=O)[C@@H](NC(=O)[C@H](Cc1ccccc1)NC(=O)[C@H](CCC(=O)O)NC(=O)[C@H](CCC(N)=O)NC(=O)[C@H](C)NC(=O)[C@H](CCCNC(=N)N)NC(=O)[C@H](C)NC(=O)[C@H](CO)NC(=O)[C@H](CC(=O)O)NC(=O)[C@H](CC(C)C)NC(=O)[C@H](Cc1ccc(O)cc1)NC(=O)[C@H](CCCCN)NC(=O)[C@H](CO)NC(=O)[C@H](Cc1ccc(O)cc1)NC(=O)[C@H](CC(=O)O)NC(=O)[C@H](CO)NC(=O)[C@@H](NC(=O)[C@H](Cc1ccccc1)NC(=O)[C@@H](NC(=O)CNC(=O)[C@H](Cc1c[nH]cn1)NC(=O)[C@H](CO)NC(=O)[C@@H](N)Cc1ccc(O)cc1)[C@@H](C)O)[C@@H](C)O)C(C)C)C(=O)N[C@@H](C)C(=O)N1CCC[C@H]1C(=O)N1CCC[C@H]1C(=O)N1CCC[C@H]1C(=O)N[C@@H](CO)C(N)=O)C(=O)O [Compound B41] (H-YSHGTFTSDYSKYLDSARAQEFVKWLEDEPSSK([γGlu-Palmitoyl])APPPS-NH2) | – | – | – | – | – | – | 0.0251 nM | > 1000 nM | 0.291 L/h/kg | 1.09 h
